Experimental data from patent US20060229321A1, “Rosuvastatin in pre demented states” (priority 2001, published 2006).
Structures can show the parent of a compound that is named as a salt.

Columns and labels:
eNOS = eNOS expression and activity in mice after subcutaneous rosuvastatin; type: in vivo; details: mouse, subcutaneous 2 or 20 mg/kg for 14 days
Text: (§1) The studies were generally carried out according to the methods set forth in M. Endres et al., Stroke protection by 3-hydroxy-3-methylglutaryl (HMG)-CoA reductase inhibitors mediated by endothelial nitric oxide synthase, Proc. Natl. Acad. Sci. USA, 95:8880-8885 (1998). In many cases dementia is known to result from the cumulative neurodegenerative effects of strokes. These can be major strokes or sub-clinical strokes, and result in a heterogeneous group of dementias commonly called vascular dementia (VAD). In this study rosuvastatin protected the brain in mice from cerebral ischemia A mechanism by which rosuvastatin may prevent dementia is by protecting the brain from cerebral ischemia.

cholesterol = details: cited from earlier work
[1] = test system: cerebral ischemia caused by middle-cerebral artery occlusion (MCAO); assay: Infarct volume after middle-cerebral artery occlusion (MCAO) in mice; type: in vivo; details: mouse, subcutaneous 2 or 20 mg/kg for 14 days before MCAO
Text: as §1

[2] = treatment of hypercholesterolemia; Am J. Med. 2000:108:538-547; cited from earlier work

CC(C)c1nc(N(C)S(C)(=O)=O)nc(-c2ccc(F)cc2)c1/C=C/[C@@H](O)C[C@@H](O)CC(=O)O [rosuvastatin, bis[(E)-7-[4-(4-fluorophenyl-6-isopropyl-2-[methyl(methylsulfonyl)amino]pyrimidin-5-yl]-(3R,5S)3,5-dihydroxyhept-6-enoic acid]calcium salt]
activity of eNOS (eNOS): increased | expression of eNOS (eNOS): increased | reducing cholesterol in patients versus other HMG-CoA reductase inhibitors (cholesterol): superior | volume of infarct resulting from subsequent cerebral ischemia (MCAO) [1]: reduced

CC[C@H](C)C(=O)O[C@H]1C[C@@H](C)C=C2C=C[C@H](C)[C@H](CC[C@@H]3C[C@@H](O)CC(=O)O3)[C@H]21 [Lovastatin]
performance on neuropsychological tests of attention and psychomotor speed [2]: small performance decrements
